Assay results taken from ChEMBL document CHEMBL3734724, “Anticancer efficacy of unique pyridine-based tetraindoles” (Eur J Med Chem, 2015).
Active and inactive are the calls of the source. The calls are words filed in the database; no cut-off is given here.

Experiments:
[1] = Ratio of compound IC50 to SK228 IC50 for human M10 cells; assay type: ADME, cell-based; conditions: read-out: Ratio IC50
MDA-MB-231 [2] = assay: Cell cycle arrest in human MDA-MB-231 cells assessed as accumulation at G0/G1 phase at 1.6 uM after 24 hrs by propidium iodide staining-based flow cytometric analysis (reference value: 57 +/- 6%); assay type: functional
MDA-MB-231 [3] = assay: Cell cycle arrest in human MDA-MB-231 cells assessed as accumulation at S phase at 1.6 uM after 48 hrs by propidium iodide staining-based flow cytometric analysis (reference value: 26 +/- 3%); assay type: functional
MDA-MB-231 [4] = assay: Cell cycle arrest in human MDA-MB-231 cells assessed as accumulation at sub-G1 phase at 1.6 uM after 24 hrs by propidium iodide staining-based flow cytometric analysis relative to control; assay type: functional
MDA-MB-231 [5] = assay: Antitumor activity against luciferase-expressing human MDA-MB-231 cells xenografted in ip dosed nude mouse assessed as tumor growth inhibition administered every other day measured on day 54; assay type: functional, organism-based
MDA-MB-231 [6] = assay: Cell cycle arrest in human MDA-MB-231 cells assessed as accumulation at S phase at 0.4 uM after 24 hrs by propidium iodide staining-based flow cytometric analysis (reference value: 32 +/- 4%); assay type: functional
MDA-MB-231 [7] = assay: Cell cycle arrest in human MDA-MB-231 cells assessed as accumulation at G2/M phase at 1.6 uM after 48 hrs by propidium iodide staining-based flow cytometric analysis (reference value: 16 +/- 3%); assay type: functional
MDA-MB-231 [8] = assay: Antimetastatic activity against luciferase-expressing human MDA-MB-231 cells xenografted in ip dosed nude mouse assessed as reduction of lung metastasis administered every other day measured on day 54; assay type: functional, organism-based
MDA-MB-231 [9] = assay: Cell cycle arrest in human MDA-MB-231 cells assessed as accumulation at sub-G1 phase at 0.4 uM after 24 hrs by propidium iodide staining-based flow cytometric analysis relative to control; assay type: functional
MDA-MB-231 [10] = assay: Induction of DNA damage in human MDA-MB-231 cells after 48 hrs by alkaline comet assay; assay type: functional, cell-based
MDA-MB-231 [11] = assay: Cell cycle arrest in human MDA-MB-231 cells assessed as accumulation at G2/M phase at 0.8 uM after 48 hrs by propidium iodide staining-based flow cytometric analysis (reference value: 16 +/- 3%); assay type: functional
MDA-MB-231 [12] = assay: Cell cycle arrest in human MDA-MB-231 cells assessed as accumulation at S phase at 0.4 uM after 48 hrs by propidium iodide staining-based flow cytometric analysis (reference value: 26 +/- 3%); assay type: functional
MDA-MB-231 [13] = assay: Cell cycle arrest in human MDA-MB-231 cells assessed as accumulation at G0/G1 phase at 0.8 uM after 24 hrs by propidium iodide staining-based flow cytometric analysis (reference value: 57 +/- 6%); assay type: functional
MDA-MB-231 [14] = assay: Antitumor activity against luciferase-expressing human MDA-MB-231 cells xenografted in nude mouse assessed as tumor growth inhibition at 10 mg/kg, ip administered every other day measured on day 54 relative to vehicle-treated control; assay type: functional; conditions: MDA-MB-231, ip, 1296 h, read-out: TGI
MDA-MB-231 [15] = assay: Induction of DNA damage in human MDA-MB-231 cells at 3.2 uM after 48 hrs by alkaline comet assay relative to control; assay type: functional
MDA-MB-231 [16] = assay: Cell cycle arrest in human MDA-MB-231 cells assessed as accumulation at S phase at 1.6 uM after 24 hrs by propidium iodide staining-based flow cytometric analysis (reference value: 32 +/- 4%); assay type: functional
MDA-MB-231 [17] = assay: Cell cycle arrest in human MDA-MB-231 cells assessed as accumulation at G2/M phase at 0.8 uM after 24 hrs by propidium iodide staining-based flow cytometric analysis (reference value: 12 +/- 2%); assay type: functional
MDA-MB-231 [18] = assay: Cell cycle arrest in human MDA-MB-231 cells assessed as accumulation at G2/M phase at 0.4 uM after 48 hrs by propidium iodide staining-based flow cytometric analysis (reference value: 16 +/- 3%); assay type: functional
MDA-MB-231 [19] = assay: Cell cycle arrest in human MDA-MB-231 cells assessed as accumulation at sub-G1 phase at 0.8 uM after 48 hrs by propidium iodide staining-based flow cytometric analysis relative to control; assay type: functional
MDA-MB-231 [20] = assay: Upregulation of cyclin B1 protein expression in human MDA-MB-231 cells at 0.4 to 3.2 uM after 48 hrs by Western blot analysis relative to control; assay type: functional, cell-based
Mus musculus = assay: Toxicity in nude mouse xenografted with luciferase-expressing human MDA-MB-231 cells assessed as change in body weight at 10 to 25 mg/kg, ip administered every other day measured weekly up to day 54 relative to vehicle-treated control; assay type: organism-based; conditions: in vivo
MDA-MB-231 [21] = assay: Antimetastatic activity against luciferase-expressing human MDA-MB-231 cells xenografted in nude mouse assessed as suppression of lung metastasis by measuring reduction of lung weight at 25 mg/kg, ip administered every other day measured on day 54 relative to vehicle-treated control; assay type: functional; design: scale not given: the % may be the effect or the level left
MDA-MB-231 [22] = assay: Cell cycle arrest in human MDA-MB-231 cells assessed as accumulation at S phase at 0.8 uM after 48 hrs by propidium iodide staining-based flow cytometric analysis (reference value: 26 +/- 3%); assay type: functional
MCF7 = assay: Cytotoxicity against human MCF7 cells assessed as growth inhibition after 48 hrs by MTT assay; assay type: functional, cell-based; conditions: MCF7, 48 h
MDA-MB-231 [23] = assay: Cell cycle arrest in human MDA-MB-231 cells assessed as accumulation at S phase at 0.8 uM after 24 hrs by propidium iodide staining-based flow cytometric analysis (reference value: 32 +/- 4%); assay type: functional
MDA-MB-231 [24] = assay: Downregulation of cyclin A protein expression in human MDA-MB-231 cells at 0.4 to 3.2 uM after 48 hrs by Western blot analysis relative to control; assay type: functional, cell-based
[25] = Cytotoxicity against human BT549 cells assessed as growth inhibition after 48 hrs by MTT assay; assay type: functional, cell-based; conditions: BT-549, 48 h
MDA-MB-231 [26] = assay: Cytotoxicity against human MDA-MB-231 cells assessed as growth inhibition after 48 hrs by MTT assay; assay type: functional, cell-based; conditions: MDA-MB-231, 48 h
MDA-MB-231 [27] = assay: Antitumor activity against luciferase-expressing human MDA-MB-231 cells xenografted in nude mouse assessed as tumor growth inhibition at 25 mg/kg, ip administered every other day measured on day 54 relative to vehicle-treated control; assay type: functional; conditions: MDA-MB-231, ip, 1296 h, read-out: TGI
MDA-MB-231 [28] = assay: Downregulation of Bcl-xL protein expression in human MDA-MB-231 cells after 48 hrs by Western blot analysis; assay type: functional, cell-based
[29] = Cytotoxicity against human Hs578T cells assessed as growth inhibition after 48 hrs by MTT assay; assay type: functional, cell-based; conditions: Hs-578T
MDA-MB-231 [30] = assay: Cell cycle arrest in human MDA-MB-231 cells assessed as accumulation at G0/G1 phase at 1.6 uM after 48 hrs by propidium iodide staining-based flow cytometric analysis (reference value: 57.8 +/- 0.7%); assay type: functional
MDA-MB-231 [31] = assay: Cell cycle arrest in human MDA-MB-231 cells assessed as accumulation at sub-G1 phase at 0.4 uM after 48 hrs by propidium iodide staining-based flow cytometric analysis relative to control; assay type: functional
[32] = Cytotoxicity against human M10 cells assessed as growth inhibition after 48 hrs by MTT assay; assay type: cell-based; conditions: M10, 48 h
MDA-MB-231 [33] = assay: Upregulation of Bax protein expression in human MDA-MB-231 cells after 48 hrs by Western blot analysis; assay type: functional, cell-based
[34] = Cytotoxicity against human Hs578T cells assessed as growth inhibition at 20 uM after 48 hrs by MTT assay relative to control; assay type: functional; conditions: Hs-578T, read-out: GI

Structure (SMILES): Oc1ccc2[nH]cc(C(c3ccc(C(c4c[nH]c5ccc(O)cc45)c4c[nH]c5ccc(O)cc45)nc3)c3c[nH]c4ccc(O)cc34)c2c1
- selectivity ratio [1]: 4
- Activity (MDA-MB-231 [2]): 53%
- Activity (MDA-MB-231 [3]): 32%
- Activity (MDA-MB-231 [4]): 16%
- TGI (MDA-MB-231 [5]): Dose-dependent effect
- Activity (MDA-MB-231 [6]): 33%
- Activity (MDA-MB-231 [7]): 24%
- Activity (MDA-MB-231 [8]): Dose-dependent effect
- Activity (MDA-MB-231 [9]): 0.1%
- Activity (MDA-MB-231 [10]): Dose-dependent effect
- Activity (MDA-MB-231 [11]): 22%
- Activity (MDA-MB-231 [12]): 28%
- Activity (MDA-MB-231 [13]): 54%
- inhibition in vivo at 10 mg/kg (MDA-MB-231 [14]): 58%
- fold change (FC) (MDA-MB-231 [15]): 12
- Activity (MDA-MB-231 [16]): 27%
- Activity (MDA-MB-231 [17]): 14.7%
- Activity (MDA-MB-231 [18]): 18%
- Activity (MDA-MB-231 [19]): 12%
- Activity (MDA-MB-231 [20]): Active
- Activity (Mus musculus): Non-toxic
- Activity (MDA-MB-231 [21]): 22%
- Activity (MDA-MB-231 [22]): 29%
- IC50 (MCF7): 14 µM
- Activity (MDA-MB-231 [23]): 31%
- Activity (MDA-MB-231 [24]): Active
- IC50 [25]: 4 µM
- IC50 (MDA-MB-231 [26]): 0.8 µM
- inhibition in vivo at 25 mg/kg (MDA-MB-231 [27]): 70%
- Activity (MDA-MB-231 [28]): Dose-dependent effect
- IC50 [29]: > 20 µM
- Activity (MDA-MB-231 [30]): 45%
- Activity (MDA-MB-231 [31]): 1.3%
- IC50 [32]: > 20 µM
- Activity (MDA-MB-231 [33]): Dose-dependent effect
- inhibition of growth at 20 µM [34]: 25%
